Bridge positions count the residues as written; N and C are the ends.
Experiments:
[1] = tested on: BDMs infected with M. catarrhalis; assay: Multiplex ELISA of cytokines in BDM supernatant after infection; assay type: cell-based, human; details: defensin 1 12.5 µM, 1 or 5 h post-infection, MOI 0.5 or 1
Description: The presence of cytokines in the BDM supernatant after infection and treatment with 12.5 µM defensin 1 was assessed using the MAGPIX Multiplex ELISA (Luminex, Austin, TX, USA). BDM supernatants were prepared as recommended for the MAGPIX system. The cytokine panel comprised MIP1-α, MCP1, IL-1β, IL-6, IL-8, IL-10, IL-12p70, IL-23, LAP and TNF-α.
Statistical interpretation of the multiplex ELISA data required the incorporation of data points outside the detection range and adjustments for the effect of parallel technical measurements from the same biological samples. We therefore used the Hodges and Lehmann nonparametric aligned ranks test to compare cytokine secretion by treatment time within treatment groups and between the following control and treatment groups: […]

Streptococcus pneumoniae = details: cited from earlier work
Text: Among the 23 AMPs we tested, only defensin 1 was previously found to be effective against the Gram-positive pathogen Streptococcus pneumoniae. It is unclear whether the eﬃcacy of defensin 1 indeed lies in the structure of the peptide and whether other AMPs with different structures would also show activity against M. catarrhalis. We therefore also investigated L. sericata sarcotoxin 1 C, which has a linear α-helical structure without disulfide bridges.

[2] = tested on: BDMs infected with M. catarrhalis; assay: qRT-PCR of cytokine mRNA in infected BDMs; assay type: cell-based, human; details: defensin 1 12.5 µM given 1 or 5 h after infection, MOI 0.5 or 1; collected 16 h post-infection
Description: BDMs were infected with M. catarrhalis as described above and the cells and supernatant were collected 16 h post-infection. Total RNA was isolated by phenol-chloroform extraction followed by reverse transcription using the High-Capacity RNA-to-cDNA kit (Thermo Fisher Scientific, Waltham, MA, USA). Quantitative real-time PCR (qRT-PCR) was performed with the following specific primer pairs to measure the expression of IL-1β (forward primer 5′-AGCTCGCCAGTGAAATGATGG-3′ and reverse primer 5′-CAGGTCCTGGAAGGAGCACTTC-3′), IL-8 (forward primer 5′-ACTGAGAGTGATTGAGAGTGGAC-3′ and reverse primer 5′-AACCCTCTGCACCCAGTTTTC-3′), and RPS18 (forward primer 5′-GCGGCGGAAAATAGCCTTTG-3′ and reverse primer 5′-GATCACACGTCCACCTCATC-3′).

[3] = tested on: commensal species (E. faecalis and E. coli); details: previous study; cited from earlier work
Text: We furthermore tested the effect of defensin 1 and sarcotoxin 1 C on the commensals E. faecalis and E. coli. Selectivity of AMPs may provide an important therapeutic advantage over broad-spectrum antibiotics because AMPs targeting pathogens but not commensals would avoid the common side effects of antibiotic therapy. […] Sarcotoxin 1 C was previously shown to inhibit 90% of clinical multidrug-resistant isolates of Ent ...

[4] = tested on: M. catarrhalis in human blood-derived macrophages (BDMs); assay: Colony forming unit assay in blood-derived macrophages infected with M. catarrhalis; assay type: cell-based, Moraxella catarrhalis; details: MOI 0.5 or 1; defensin 1 12.5 µM or sarcotoxin 1 C 0.39 µM added 1 or 5 h post-infection; further 16 h; lysis with 1% saponin, plating; vs assays without peptide
Description: The absolute number of bacterial cells after treatment with defensin 1 or sarcotoxin 1 C was determined by counting the colony forming units (CFUs). M. catarrhalis overnight cultures prepared as described above were grown to the mid-exponential phase (~5 x 10^8 cells/ml) in BHI medium before dilution to 2 × 10^7 cells/ml in PBS containing 0.15% gelatin, and blood-derived macrophages (BDMs) were infected with a multiplicity of infection (MOI) of 0.5 or 1. […] Cells were then incubated for an additional 16 h at 37°C and 5% CO2 and then lysed with 1% saponin. Lysates were plated on sheep blood agar and cultivated for a further 15 h at 37°C and 5% CO2 before manual counting of the colonies on each plate.
All donors gave informed written consent (Ethics approval number: 161/17). Human BDMs were cultured as previously described. Briefly, primary human monocytes were isolated from donor buffy coats by selection for CD14^+ cells using CD14 Microbeads (Miltenyi Biotec, Bergisch Gladbach, Germany). Monocytes were grown in RPMI1640 medium with 1% human AB serum at 37°C and 5% CO2 on ultra-low attachment plates (Sigma-Aldrich, Munich, Germany). After 6 days, differentiated macrophages were detached, seeded at the desired density and incubated for 24 h before further analysis.

## H-VTCDLLSAEAKGVKVNHAACAAHCLLKRKRGGYCNKRRICVCRN-OH (disulfide 3-34, 20-40, 24-42 (inferred)) [Defensin 1]
[1]
  bacteria-induced secretion of IL-1β: inhibited
  bacteria-induced secretion of IL-10: inhibited
  bacteria-induced secretion of IL-12p70: inhibited
  bacteria-induced secretion of IL-23: inhibited
Streptococcus pneumoniae
  effective against Streptococcus pneumoniae: effective
[2]
  IL-1β expression (mRNA, qRT-PCR): limited the expression
  IL-8 expression (mRNA, qRT-PCR): limited the expression
[3]
  effect against commensal species (E. faecalis, E. coli): no effect
[4]
  M. catarrhalis CFU count (bacterial burden) in infection assay of primary BDMs: reduced the bacterial burden
